Tested on: contused spinal cord injury
Assay: Spinal cord injury, contusion model, BBB locomotor score
Type: in vivo, Sprague-Dawley rats
Settings: SCI Study No. 4; 14 day contusion; rats; 20 mg/kg BID i.p., 75% PEG200 formulation
Protocol: Compound A was tested in both the rat dorsal hemisection (Guth, L. et al. (1980), J. Neurosurgery 52: 73-86) and contusion models (Scheff, S. W. (2003), J. Neurotrauma 20: 179-193) for evaluation of efficacy. These models are widely used in the field of spinal cord injury and replicate many of the pathological aspects found in humans who have sustained a spinal cord injury. Rats were subjected to an experimental spinal cord injury at T8, and were given Compound A shortly thereafter. Behavioral tests to assess the locomotion deficits were performed after the lesion. At the end of the experiment, animals were sacrificed and the spinal cord was collected for histopathological analysis. […] Histological assessment of the tissue at the site of injury was also made in both the drug treated and untreated group. […]
The BBB score is a 21-point scale representing 21 stages of locomotor recovery after spinal cord injury. The scale is based on unique combinations of scored behaviors, ranked according to time of appearance after injury. […]

## CC(=O)Nc1ccc(C(=O)NC(C)(C)C)cc1 [Compound A, N-tert-butyl-4-acetamidobenzamide]
  functional neurological outcome, BBB score: no significant effects were observed
